# Tests used:
# Human Full Length PARG = Human Full Length PARG (Homo sapiens (Human), UniProt Q86W56); assay: PARG in vitro enzyme assay (TR-FRET); type: biochemical; settings: read-out: PARG_EC50_ENZYME
# Outline: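 Full-length human PARG ([…]) incubated with ribosylated PARP substrate (4.5 nM) for 10 min at room temperature in Tris pH 7.4 buffer with EDTA, EGTA, DTT, KCl. Detection by TR-FRET using anti-6HIS XL665 (14 nM final) and streptavidin europium cryptate (0.75 nM final) after 60 min; Em665/Em620 ratio converted to percent inhibition.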
# Human Full Length ARH3 = Human Full Length ARH3 (Homo sapiens (Human), UniProt Q9NX46); assay: ARH3 in vitro selectivity assay (TR-FRET); type: biochemical; settings: read-out: ARH3 Biochem IC50
# Experimental: ARH3 In vitro selectivity assays were conducted in a total volume of 15 ul in a standard 384 well format. 5 ul of Human Full Length ARH3 (Enzo Life Sciences: ALX-201-292), used at a final reaction concentration of 17.5 nM, was added to 5 ul of Ribosylated PARP substrate (also produced internally by Astra Zeneca) at final reaction concentration of 4.5 nM in assay buffer (50 mM Tris pH7.4, 0.1 mg/ml BSA, 3 mM EDTA, 0.4 mM EGTA, 1 mM DTT, 0.01% Tween 20, 50 mM KCl). The reaction was incubated at room temperature for 30 minutes and then 5 ul detection reagent was added. Detection Reagent consists of 42 nM MAb Anti-6HIS XL665 (CisBio: 61HISXLB) and 2.25 nM Streptavidin Europium Cryptate (CisBio: 610SAKLB), both at 3× working stock concentrations (final concentrations of 14 nM and 0.75 nM respectively), in a detection buffer of 50 mM Tris pH7.4, BSA at 0.1 mg/ml and KF at 100 mM. Following incubation at room temperature for 60 minutes in the dark, TR-FRET signal was measured at Ex 340 and Em 665 and Em 620. A ratio was calculated as Em665/EM620×104 for each well and used to calculate percent inhibition for test compounds.
# [1] = target: Human High specific Activity PARP1 (Homo sapiens (Human), UniProt P09874); assay: PARP1 in vitro selectivity assay (histone PARylation, luminescence); type: biochemical; settings: read-out: PARP1 Biochem IC50
# Experimental: PARP1 In vitro selectivity assays were conducted as a 10 ul reaction volume in a NUNC Maxisorp 384-well assay plate pre-coated in-house with Histones. 5 ul of Human High specific Activity PARP1 (Trevigen: 4668-100-01) was used at a final reaction concentration of 0.02 units/ml in 1×PARP Buffer (Trevigen: 4671-096-02) with 5 ul of 1×PARP cocktail, which is a mixture of 10×PARP Cocktail (Trevigen: 4671-096-03), 10× Activate DNA (Trevigen: 4671-096-06) and 20×PARP Buffer (as above). The reaction was incubated at room temperature for 60 minutes to allow histones on the coated plate to become PARylated. The wells were then washed with PBS/0.1% Triton X100. PARP1 activity was then detected by measuring the extent of PARylation. Firstly, 10 ul of Streptavidin-HRP (Trevigen: 4800-30-06), diluted 1 in 250 in 1×PARG Assay Buffer (Trevigen: 4680-096-02), was added to each well and incubated at room temperature for 60 minutes. Secondly, following another wash with PBS/0.1% Triton X100, Peroxy Glow Reagents A and B (Trevigen: 4675-096-01 and 4675-096-02) were mixed in equal quantities immediately before use and 100 ul was added to each well. Luminescence signal was then measured immediately.
# PARG in HeLa cell line = PARG in HeLa cell line (Homo sapiens (Human), UniProt Q86W56); assay: PARG cell assay (nuclear PAR chains after MMS, immunofluorescence); type: cell-based; settings: HeLa cells, MMS 50 μg/mL; read-out: PARG Cell IC50 Geomean
# Outline: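 HeLa cells pre-dosed 1 h with compound (10-point dose response), then MMS 50 μg/mL for a further hour at 37 °C. Fixed cells immunostained with anti-PAR antibody plus Alexa Fluor 488 secondary and Hoechst. High-content imaging quantified nuclear PAR fluorescence intensity; inhibition maintains PAR chains.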
# Human Full Length PARG, sequence (Q86W56 whole entry): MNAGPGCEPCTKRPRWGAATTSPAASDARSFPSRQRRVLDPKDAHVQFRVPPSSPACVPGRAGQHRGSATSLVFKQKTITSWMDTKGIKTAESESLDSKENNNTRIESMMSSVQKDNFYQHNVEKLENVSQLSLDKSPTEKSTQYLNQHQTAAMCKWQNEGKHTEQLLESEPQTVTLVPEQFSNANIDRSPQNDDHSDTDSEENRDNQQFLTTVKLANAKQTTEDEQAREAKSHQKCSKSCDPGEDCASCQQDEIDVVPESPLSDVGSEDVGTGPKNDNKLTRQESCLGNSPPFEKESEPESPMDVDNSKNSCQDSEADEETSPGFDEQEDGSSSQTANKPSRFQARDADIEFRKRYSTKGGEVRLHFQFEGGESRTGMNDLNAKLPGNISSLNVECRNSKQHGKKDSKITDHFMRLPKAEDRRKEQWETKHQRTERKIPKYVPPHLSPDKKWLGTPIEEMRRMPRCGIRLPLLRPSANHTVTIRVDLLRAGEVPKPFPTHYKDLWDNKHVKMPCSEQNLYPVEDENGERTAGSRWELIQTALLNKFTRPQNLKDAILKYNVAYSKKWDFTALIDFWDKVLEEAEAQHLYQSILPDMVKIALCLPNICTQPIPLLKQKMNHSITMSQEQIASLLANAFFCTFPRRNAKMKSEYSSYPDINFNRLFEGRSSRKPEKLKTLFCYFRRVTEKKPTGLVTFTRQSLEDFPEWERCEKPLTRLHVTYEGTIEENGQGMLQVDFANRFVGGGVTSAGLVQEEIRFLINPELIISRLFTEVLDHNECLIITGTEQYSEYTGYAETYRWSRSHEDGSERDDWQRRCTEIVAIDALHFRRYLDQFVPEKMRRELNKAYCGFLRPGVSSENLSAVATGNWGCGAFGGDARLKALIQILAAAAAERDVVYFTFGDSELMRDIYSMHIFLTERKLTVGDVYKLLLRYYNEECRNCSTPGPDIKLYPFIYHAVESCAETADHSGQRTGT
# PARG in HeLa cell line, sequence (Q86W56 whole entry): as above
# Human High specific Activity PARP1, sequence (P09874 whole entry): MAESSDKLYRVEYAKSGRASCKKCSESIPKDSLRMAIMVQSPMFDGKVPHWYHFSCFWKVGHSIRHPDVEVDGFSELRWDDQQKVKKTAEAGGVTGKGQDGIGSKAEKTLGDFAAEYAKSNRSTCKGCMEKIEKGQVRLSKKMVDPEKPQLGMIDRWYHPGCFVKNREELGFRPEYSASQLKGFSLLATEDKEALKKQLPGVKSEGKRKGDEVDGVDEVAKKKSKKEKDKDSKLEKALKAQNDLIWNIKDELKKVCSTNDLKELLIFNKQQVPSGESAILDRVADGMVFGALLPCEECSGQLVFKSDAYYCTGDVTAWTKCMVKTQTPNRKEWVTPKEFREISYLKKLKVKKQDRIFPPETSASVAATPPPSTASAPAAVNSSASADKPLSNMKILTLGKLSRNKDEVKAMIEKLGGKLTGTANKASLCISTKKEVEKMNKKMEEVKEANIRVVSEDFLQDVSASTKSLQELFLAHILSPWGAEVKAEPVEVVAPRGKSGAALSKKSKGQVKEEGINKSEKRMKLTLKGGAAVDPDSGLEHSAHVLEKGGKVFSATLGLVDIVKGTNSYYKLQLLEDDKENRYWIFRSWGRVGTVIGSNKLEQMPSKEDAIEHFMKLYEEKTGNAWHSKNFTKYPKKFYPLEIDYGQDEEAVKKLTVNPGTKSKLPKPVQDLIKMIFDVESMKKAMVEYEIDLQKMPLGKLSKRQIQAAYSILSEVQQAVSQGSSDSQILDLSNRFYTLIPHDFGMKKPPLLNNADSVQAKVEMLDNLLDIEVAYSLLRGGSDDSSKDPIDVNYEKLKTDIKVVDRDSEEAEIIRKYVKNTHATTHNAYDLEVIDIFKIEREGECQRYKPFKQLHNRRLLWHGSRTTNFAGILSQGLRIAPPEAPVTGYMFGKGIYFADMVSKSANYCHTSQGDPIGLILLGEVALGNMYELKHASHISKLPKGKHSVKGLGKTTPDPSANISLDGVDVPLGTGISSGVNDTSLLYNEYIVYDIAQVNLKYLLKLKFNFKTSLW
# Human Full Length ARH3, sequence (Q9NX46 whole entry): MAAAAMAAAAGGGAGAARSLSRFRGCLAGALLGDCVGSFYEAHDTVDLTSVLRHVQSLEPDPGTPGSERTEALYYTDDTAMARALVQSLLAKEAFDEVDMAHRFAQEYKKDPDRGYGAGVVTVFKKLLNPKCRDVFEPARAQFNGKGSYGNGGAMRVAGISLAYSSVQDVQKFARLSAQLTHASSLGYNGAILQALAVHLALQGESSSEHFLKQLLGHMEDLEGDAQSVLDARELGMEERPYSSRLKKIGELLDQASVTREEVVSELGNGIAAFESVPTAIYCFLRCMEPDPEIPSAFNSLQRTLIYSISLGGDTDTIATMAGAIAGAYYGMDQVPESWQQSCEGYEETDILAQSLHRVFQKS
Compound,EC50 (Human Full Length PARG) [µM],IC50 (Human Full Length ARH3) [µM],IC50 [1] [µM],IC50 (PARG in HeLa cell line) [µM]
"CC1(NS(=O)(=O)c2ccc3c(c2)N(C(=O)CN2CCOC2=O)CC3)CC1 [Example 14, N-(1-Methylcyclopropyl)-1-[2-(2-oxooxazolidin-3-yl)acetyl]indoline-6-sulfonamide]",4.28,> 150,> 150,–
Cc1nnc(-n2c(=O)n(Cc3ccc(F)cc3)c3ccc(S(=O)(=O)NC4(C)CC4)cc32)s1 [Example 73],0.636,> 100,> 150,0.107
Cn1c(=O)n(-c2nnc(C(F)F)s2)c2cc(S(=O)(=O)NC3(C)CC3)ccc21 [Example 79],0.652,> 100,> 150,–
Cc1nnc(-n2c(=O)n(CC3CC3)c3ccc(S(=O)(=O)NC4(C)CC4)cc32)s1 [Example 82],0.155,> 100,> 150,0.193
Cc1ncc(Cn2c(=O)n(-c3nnc(C)s3)c3cc(S(=O)(=O)NC4(C)CC4)ccc32)s1 [Example 83],0.151,> 100,> 150,0.127
Cc1nnc(-n2c(=O)n(Cc3sc(C)nc3C)c3ccc(S(=O)(=O)NC4(C)CC4)cc32)s1 [Example 87],0.068,76.7,> 150,0.109
Cc1nc(C)c(Cn2c(=O)n(-c3nnc(C(F)F)s3)c3cc(S(=O)(=O)NC4(C)CC4)ccc32)s1 [Example 88],0.053,> 100,> 150,0.038
Cc1nc(C)c(Cn2c(=O)n(-c3ncns3)c3cc(S(=O)(=O)NC4(C)CC4)ccc32)s1 [Example 90],0.04,> 100,> 150,0.063
Cc1cc(Cc2nc3ccc(S(=O)(=O)NC4(C)CC4)cc3n2-c2nnc(C)s2)on1 [Example 118],0.671,> 150,> 150,–
Cc1nnc(-n2cnc3ccc(S(=O)(=O)NC4(C)CC4)cc32)s1 [Example 119],1.03,> 150,> 150,–
"Cc1nnc(-n2cc(Cc3sc(C)nc3C)c3ccc(S(=O)(=O)NC4(C)CC4)cc32)s1 [Example 129, 3-[(2,4-Dimethylthiazol-5-yl)methyl]-N-(1-methylcyclopropyl)-1-(5-methyl-1,3,4-thiadiazol-2-yl)indole-6-sulfonamide]",0.371,> 16.7,> 150,0.251
"Cc1nnc(-n2nc(Cc3ccc(F)cc3)c3ccc(S(=O)(=O)NC4(C)CC4)cc32)s1 [Example 146, 3-[(4-Fluorophenyl)methyl]-N-(1-methylcyclopropyl)-1-(5-methyl-1,3,4-thiadiazol-2-yl)indazole-6-sulfonamide]",1.19,> 16.7,> 150,–
"CCn1c(=O)n(-c2nnc(C(F)F)o2)c2cc(S(=O)(=O)NC3(CF)CC3)c(F)cc21 [Example 200, 3-[5-(Difluoromethyl)-1,3,4-oxadiazol-2-yl]-1-ethyl-6-fluoro-N-[1-(fluoromethyl)cyclopropyl]-2-oxo-benzimidazole-5-sulfonamide]",0.112,> 150,–,0.126

# The remaining lines, values ahead:
EC50 (Human Full Length PARG) [µM],IC50 (Human Full Length ARH3) [µM],IC50 [1] [µM],IC50 (PARG in HeLa cell line) [µM],Compound
3.97,–,–,0.97,"Cn1c(=O)n(-c2ccc(C(F)(F)F)nn2)c2cc(S(=O)(=O)NC3(CF)CC3)c(F)cc21 [Example 206, 6-Fluoro-N-[1-(fluoromethyl)cyclopropyl]-1-methyl-2-oxo-3-[6-(trifluoromethyl)pyridazin-3-yl]benzimidazole-5-sulfonamide]"
0.133,–,–,0.024,"CCn1c(=O)n(-c2nnc(C(F)F)s2)c2cc(S(=O)(=O)NC3(C)CC3)c(F)cc21 [Example 207, 3-[5-(Difluoromethyl)-1,3,4-thiadiazol-2-yl]-1-ethyl-6-fluoro-N-(1-methylcyclopropyl)-2-oxo-benzimidazole-5-sulfonamide]"
0.93,–,–,0.219,"Cn1c(=O)n(-c2nnc(C(F)F)o2)c2cc(S(=O)(=O)NC3(C)CC3)c(F)cc21 [Example 209, 3-[5-(Difluoromethyl)-1,3,4-oxadiazol-2-yl]-6-fluoro-1-methyl-N-(1-methylcyclopropyl)-2-oxo-benzimidazole-5-sulfonamide]"
0.349,–,–,0.224,"Cn1c(=O)n(-c2nnc(C(F)F)o2)c2cc(S(=O)(=O)NC3(CF)CC3)c(F)cc21 [Example 210, 3-[5-(Difluoromethyl)-1,3,4-oxadiazol-2-yl]-6-fluoro-N-[1-(fluoromethyl)cyclopropyl]-1-methyl-2-oxo-benzimidazole-5-sulfonamide]"
0.401,> 150,–,0.135,"CC1(NS(=O)(=O)c2cc3c(cc2F)n(CCF)c(=O)n3-c2nnc(C(F)F)o2)CC1 [Example 211, 3-[5-(Difluoromethyl)-1,3,4-oxadiazol-2-yl]-6-fluoro-1-(2-fluoroethyl)-N-(1-methylcyclopropyl)-2-oxo-benzimidazole-5-sulfonamide]"
0.129,> 150,–,0.11,"O=c1n(CCF)c2cc(F)c(S(=O)(=O)NC3(CF)CC3)cc2n1-c1nnc(C(F)F)o1 [Example 212, 3-[5-(Difluoromethyl)-1,3,4-oxadiazol-2-yl]-6-fluoro-1-(2-fluoroethyl)-N-[1-(fluoromethyl)cyclopropyl]-2-oxo-benzimidazole-5-sulfonamide]"
0.029,> 150,–,0.016,"C#CCn1c(=O)n(-c2nnc(C(F)F)s2)c2cc(S(=O)(=O)NC3(CF)CC3)c(F)cc21 [Example 213, 3-[5-(Difluoromethyl)-1,3,4-thiadiazol-2-yl]-6-fluoro-N-[1-(fluoromethyl)cyclopropyl]-2-oxo-1-prop-2-ynyl-benzimidazole-5-sulfonamide]"
0.165,–,–,1.53,"NC(=O)Cn1c(=O)n(-c2nnc(C(F)F)s2)c2cc(S(=O)(=O)NC3(CF)CC3)c(F)cc21 [Example 214, 2-[3-[5-(Difluoromethyl)-1,3,4-thiadiazol-2-yl]-6-fluoro-5-[[1-(fluoromethyl)cyclopropyl]sulfamoyl]-2-oxo-benzimidazol-1-yl]acetamide]"
0.17,–,–,0.086,"N#CCn1c(=O)n(-c2nnc(C(F)F)s2)c2cc(S(=O)(=O)NC3(CF)CC3)c(F)cc21 [Example 215, 1-(Cyanomethyl)-3-[5-(difluoromethyl)-1,3,4-thiadiazol-2-yl]-6-fluoro-N-[1-(fluoromethyl)cyclopropyl]-2-oxo-benzimidazole-5-sulfonamide]"
0.051,> 150,–,0.033,"O=c1n(CCF)c2cc(F)c(S(=O)(=O)NC3(CF)CC3)cc2n1-c1nnc(C(F)F)s1 [Example 216, 3-[5-(Difluoromethyl)-1,3,4-thiadiazol-2-yl]-6-fluoro-1-(2-fluoroethyl)-N-[1-(fluoromethyl)cyclopropyl]-2-oxo-benzimidazole-5-sulfonamide]"
0.156,–,–,0.036,"CC1(NS(=O)(=O)c2cc3c(cc2F)n(CCF)c(=O)n3-c2nnc(C(F)F)s2)CC1 [Example 217, 3-[5-(Difluoromethyl)-1,3,4-thiadiazol-2-yl]-6-fluoro-1-(2-fluoroethyl)-N-(1-methylcyclopropyl)-2-oxo-benzimidazole-5-sulfonamide]"
15.8,–,–,2.81,"CCOC(=O)c1oc2ccc(S(=O)(=O)NC3(C)CC3)cc2c1C [Example 218, Ethyl 3-methyl-5-[(1-methylcyclopropyl)sulfamoyl]benzofuran-2-carboxylate]"

# Reference: patent US10508086B2 (CANCER RESEARCH TECHNOLOGY LIMITED, priority 2014, dated 2019)
